# Experimental data reported in article PMC6927412, “PMP–diketopiperazine adducts form at the active site of a PLP dependent enzyme involved in formycin biosynthesis” (Chemical Communications (Cambridge, England), 2019).
# Key:
# [1] = biological target: T1, ForI (Streptomyces kaniharaensis, UniProt A0A5S8ZI02); assay: UV-vis, mass spectrometry and crystal structure of the adduct; type: binding; settings: covalent; reacts at PLP, bound species is the PMP-diketopiperazine adduct; 10 mM, pH 8, 4 °C
# T1 construct: gene cof17; homodimer, active site from both monomers; residues 3 to 417 located in crystal
# T1 sequence (A0A5S8ZI02 1-423): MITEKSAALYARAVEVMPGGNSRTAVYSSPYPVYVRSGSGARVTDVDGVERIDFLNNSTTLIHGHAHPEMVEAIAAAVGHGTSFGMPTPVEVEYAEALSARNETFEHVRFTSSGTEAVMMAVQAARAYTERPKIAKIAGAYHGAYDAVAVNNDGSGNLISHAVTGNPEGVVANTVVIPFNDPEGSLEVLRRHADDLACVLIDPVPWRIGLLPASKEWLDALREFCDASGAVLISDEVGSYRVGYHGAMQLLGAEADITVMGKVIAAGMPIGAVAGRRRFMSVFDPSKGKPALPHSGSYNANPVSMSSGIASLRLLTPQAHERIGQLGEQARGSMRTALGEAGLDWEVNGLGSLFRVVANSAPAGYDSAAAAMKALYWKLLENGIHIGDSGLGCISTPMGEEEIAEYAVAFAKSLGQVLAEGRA
# [2] = biological target: T1, ForI; assay: UV-vis spectrum of PLP cofactor; PMP form seen in crystal; type: biochemical; settings: amino donor half-reaction; L-Glu itself not seen in density
# [3] = biological target: T1, ForI; assay: X-ray crystal structure, […] Å; type: binding; settings: crystals incubated with L-Glu for 20 min; non-covalent
# [4] = biological target: T1, ForI; assay: X-ray crystal structure, […] Å; mass spectrometry; type: binding; settings: pH 8
smiles,measurement,setting,value
N[C@@H]1CONC1=O [D-cycloserine],"UV-vis, mass spectrometry and crystal structure of the adduct",[1],Incubation of ForI with either D- or L-cycloserine immediately shows changes in the UV-vis spectrum
N[C@@H](CCC(=O)O)C(=O)O [L-Glu],UV-vis spectrum of PLP cofactor; PMP form seen in crystal,[2],Incubating ForI with L-Glu shows a rapid change in the UV-vis spectrum
N[C@H]1CONC1=O [L-cycloserine],"UV-vis, mass spectrometry and crystal structure of the adduct",[1],Incubation of ForI with either D- or L-cycloserine immediately shows changes in the UV-vis spectrum
Cc1ncc(COP(=O)(O)O)c(CN)c1O [PMP],"X-ray crystal structure, 1.56 Å",[3],"the pyridoxal co-factor is unattached to the enzyme, suggesting it to be PMP"
Cc1ncc(COP(=O)(O)O)c(/C=N/OC[C@H]2NC(=O)[C@@H](CON)NC2=O)c1O [PMP–diketopiperazine from D-cycloserine],"X-ray crystal structure, 1.5 Å; mass spectrometry",[4]; covalent adduct of PLP cofactor formed on incubation with 10 mM D-cycloserine,identified the formation of external aldimine PLP–diketopiperazine adducts
Cc1ncc(COP(=O)(O)O)c(/C=N/OC[C@@H]2NC(=O)[C@H](CON)NC2=O)c1O [PMP–diketopiperazine from L-cycloserine],"X-ray crystal structure, 1.5 Å; mass spectrometry",[4]; covalent adduct of PLP cofactor formed on incubation with 10 mM L-cycloserine,identified the formation of external aldimine PLP–diketopiperazine adducts
